Source: article PMC10135297, “Peptide-Resorcinarene Conjugates Obtained via Click Chemistry: Synthesis and Antimicrobial Activity” (Antibiotics, 2023)
Values after ≈ are worked out from the molar mass of the structure shown. Where two headings read alike, the source gives them in different places. Peptide text beside a SMILES is read from it.

Experiments:
[1] = tested on: HeLa cell line; details: cited from earlier work
Protocol: (§1) Finally, the cytotoxic effect of the conjugates over fibroblasts, MCF-7, and HeLa cell lines was evaluated (Figure 7).

[2] = tested on: MCF-7 cell line; details: cited from earlier work
Protocol: as §1

[3] = tested on: E. coli ATCC 25922; format: cell-based, Escherichia coli
Protocol: (§2) The minimum inhibitory concentration (MIC) was determined using a broth microdilution assay. Specifically, […] of Mueller Hinton broth and 90 μL of peptide (initial concentration 444 μg/mL) were added to a 96-well plate, with serial dilutions (200, 100, 50, 25, 12.5, and […] μg/mL). Then, 10 μL (5 × 10^5 CFU/mL) of inoculum was added to each well, and the final volume in each well was 100 μL. They were incubated for 24 h at 37 °C, and absorbance at 620 nm was measured using the ELISA reader. To determine the minimum bactericidal concentration (MBC), an aliquot was taken from each well and placed on a Mueller Hinton Agar plate. After 24 h of incubation at 37 °C, the MBC was determined. Each of these tests was performed in duplicate.

[4] = tested on: erythrocytes; format: cell-based
Protocol: First, 5.0 mL of heparinized peripheral blood was centrifuged at 1000 rpm for 7 min. The erythrocyte fraction was suspended in […] saline solution (SS) and washed twice by centrifugation at 1000 rpm for 7 min. The erythrocytes (2% hematocrit) were incubated with peptide (ranging from 6.2 to 200 µg/mL) for 2 h at 37 °C. SS was used as a negative control, while distilled water was used as a positive control. The mixtures were centrifuged, the supernatants were collected, and the absorbance was determined to be 540 nm.

[5] = tested on: S. aureus ATCC 25923; format: cell-based, Staphylococcus aureus; details: for MBC S. aureus 25923: ATCC 25923, 24 h; for MIC S. aureus 25923: broth microdilution, Mueller Hinton broth, 24 h at 37 °C, absorbance 620 nm, in duplicate, strain sensitive to vancomycin
Protocol: as §2

[6] = tested on: C. albicans SC5314 (S); design: method as in PMID 36358216; details: sensitive to fluconazole; cited from earlier work
[7] = tested on: C. albicans 256 HUSI-PUJ (R); design: method as in PMID 36358216; details: resistant to fluconazole; cited from earlier work

Molecule	MBC S. aureus 25923 [5] [µM]	MIC S. aureus 25923 [5] [µM]	MBC E. coli 25922 ([3]; ATCC 25922, 24 h) [µM]	MIC E. coli 25922 ([3]; ATCC 25922, 24 h) [µM]	further results
(RRWQWR)4-K2-C2					Cytotoxicity against HeLa [1]: exhibited cytotoxicity; Cytotoxicity against MCF-7 [2]: exhibited cytotoxicity
CTpH(F)-(AAC-(K)-RRWQWR)4 (rctt) [tetravalent (peptide)4-resorcinarene conjugate with four copies of RRWQWR on CTpH(F)]					MBC E. coli 25922 ([3]; aliquot of each MIC well on Mueller Hinton Agar, 24 h at 37 °C, in duplicate): 36 µM; MIC E. coli 25922 ([3]; broth microdilution, Mueller Hinton broth, 24 h at 37 °C, absorbance 620 nm, in duplicate, strain susceptible to ciprofloxacin): 36 µM; Hemolytic effect at the MIC values [4]: Neither of the two conjugates exhibited a significant hemolytic effect
CC(C)C[C@H](NC(=O)[C@H](CC(C)C)NC(=O)[C@@H](N)CCCNC(=N)N)C(=O)N[C@@H](CCCNC(=N)N)C(N)=O [RLLR] (H-RLLR-NH2)	> 359	> 359	> 359	> 359	
RLLRRLLR					MIC C. albicans strain ATCC SC5314 [6]: > 183 µM; MIC clinical isolate C. albicans 256 HUSI-PUJ [7]: > 183 µM
N=C(N)NCCC[C@H](NC(=O)[C@H](Cc1c[nH]c2ccccc12)NC(=O)[C@H](CCC(N)=O)NC(=O)[C@H](Cc1c[nH]c2ccccc12)NC(=O)[C@H](CCCNC(=N)N)NC(=O)[C@@H](N)CCCNC(=N)N)C(N)=O [RRWQWR] (H-RRWQWR-NH2)	> 203	> 203	203 (≈ 200 µg/mL)	203 (≈ 200 µg/mL)	
